Here are results for eight molecules from ChEMBL document CHEMBL1201862, “PubChem BioAssay data set” (2004).

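These data come from cells grown in 96-well plates and exposed to compound for 48 hours at five concentrations. At the GI50, growth is halved.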 Active and inactive are the calls of the source. Rule as the data show it: active = GI50 up to about 1.1 µM and inactive = higher.

Some test systems named below: 786-0; UACC-257; COLO 205; SK-MEL-28; SNB-75; CAKI-1; Malme-3M; RXF 393; UACC-62; SW-620; SR; Hs-578T; A498; CCRF-CEM; SF-539; HT-29; A549; HCT-15; SN12C; MOLT-4.
Common to all, as to test: NCI anticancer screen, dose series, 48 h

Take `O=c1[nH]c(Nc2nc3ccccc3[nH]2)nc2c1CCC2`: the GI50 in the experiment with 786-0 was 44.7 µM (inactive); with UACC-257, > 100 µM (inactive); in the experiment on COLO 205, > 100 µM (inactive); in the experiment on SK-MEL-28 it was 82 µM (inactive); with SNB-75, 30 µM (inactive); with CAKI-1, > 100 µM (inactive). Also, the GI50 with Malme-3M is > 100 µM (inactive); in the experiment on RXF 393 it was 96.4 µM (inactive); in the experiment with UACC-62, > 100 µM (inactive); in the experiment on SW-620, > 100 µM (inactive); with SR, 28 µM (inactive); in the experiment with Hs-578T, 22.6 µM (inactive). In addition, the GI50 is > 100 µM (inactive) in the experiment on A498; > 100 µM (inactive) in the experiment with CCRF-CEM; 42.7 µM (inactive) with SF-539; > 100 µM (inactive) in the experiment on HT-29; > 100 µM (inactive) in the experiment with A549; over 100 µM with HCT-15. Further, in the experiment on SN12C, the GI50 is > 100 µM (inactive).

`Fc1ccc(C(OCCN2CCC3CCC(C2)N3C/C=C/c2ccco2)c2ccc(F)cc2)cc1` (centres undefined): the GI50 with 786-0 was 9.4 µM (inactive); in the experiment on UACC-257 it was 4.44 µM (inactive); in the experiment with COLO 205, 1.69 µM (inactive); in the experiment on SK-MEL-28, 6.46 µM (inactive); in the experiment with SNB-75, 15.1 µM (inactive); in the experiment on CAKI-1, 12.8 µM (inactive). For the same molecule, the GI50 in the experiment on Malme-3M was 9.57 µM (inactive); in the experiment with RXF 393, 4.4 µM (inactive); in the experiment on UACC-62, 13.8 µM (inactive); in the experiment with SW-620, 7.96 µM (inactive); in the experiment on SR it was 2.47 µM (inactive); in the experiment on Hs-578T, 14.7 µM (inactive). In addition, the GI50 in the experiment on A498 is 11.2 µM (inactive); in the experiment with CCRF-CEM, 0.0459 µM (active); with MOLT-4, 4.78 µM (inactive); in the experiment on SF-539, 14.1 µM (inactive); in the experiment with A549, 12.5 µM (inactive); in the experiment on HCT-15 it was 5.09 µM. Moreover, the GI50 in the experiment on SN12C is 11.4 µM (inactive).

Regarding `Cc1ccc(S(=O)(=O)Oc2coc(CO)cc2=O)cc1`, the GI50 in the experiment on 786-0 was 6.38 µM (inactive); in the experiment with UACC-257, 15.3 µM (inactive); with COLO 205 it was 14.3 µM (inactive); in the experiment on SK-MEL-28, 17.3 µM (inactive); with SNB-75, 14.2 µM (inactive); in the experiment with CAKI-1, 4.42 µM (inactive). The GI50 in the experiment with Malme-3M was 16.2 µM (inactive); in the experiment with RXF 393, 13.5 µM (inactive); with UACC-62 it was 11.9 µM (inactive); in the experiment on SW-620 it was 12.3 µM (inactive); with SR, 3.82 µM (inactive); in the experiment on Hs-578T it was 19.5 µM (inactive). Also, the GI50 in the experiment on A498 is 15.5 µM (inactive); with CCRF-CEM, 3.08 µM (inactive); in the experiment on MOLT-4, 13.4 µM (inactive); in the experiment with SF-539 it was 20.2 µM (inactive); in the experiment with HT-29, 12.4 µM (inactive); in the experiment with A549, 14.8 µM (inactive). Besides, the GI50 is 13.3 µM with HCT-15 and 12.7 µM (inactive) in the experiment on SN12C.

For `COc1ccc(Cn2c3ccc([N+](=O)[O-])cc3c(=O)n2Cc2ccccn2)cc1`, the GI50 with 786-0 was > 100 µM (inactive); in the experiment on UACC-257 it was 55.1 µM (inactive); in the experiment with COLO 205, > 100 µM (inactive); in the experiment with SK-MEL-28 it was > 100 µM (inactive); with SNB-75 it was 37.8 µM (inactive); with CAKI-1 it was > 100 µM (inactive). Further, the GI50 was 80.9 µM (inactive) in the experiment on Malme-3M; 86.5 µM (inactive) in the experiment on RXF 393; 43.9 µM (inactive) in the experiment on UACC-62; > 100 µM (inactive) with SW-620; 63 µM (inactive) with SR; > 100 µM (inactive) in the experiment with Hs-578T. In addition, the GI50 with A498 was > 100 µM (inactive); in the experiment with CCRF-CEM it was 62.5 µM (inactive); with MOLT-4 it was 31.3 µM (inactive); with SF-539, > 100 µM (inactive); in the experiment on HT-29, > 100 µM (inactive); with A549 it was > 100 µM (inactive). Also, the figures for the GI50 with HCT-15 and in the experiment with SN12C were over 100 µM and > 100 µM (inactive), respectively.

For `O=C(C[C@@H]1NCCC[C@H]1O)Cn1cnc2cc(Br)c(Cl)cc2c1=O`, the GI50 with 786-0 was 0.0182 µM (active); in the experiment on UACC-257, 0.0336 µM (active); in the experiment with COLO 205, 0.0165 µM (active); with SK-MEL-28, 0.0274 µM (active); with SNB-75, 0.0403 µM (active); with CAKI-1, 0.0583 µM (active). Also, the GI50 in the experiment on Malme-3M is 0.0318 µM (active); in the experiment with RXF 393, 0.0277 µM (active); with SW-620, 0.0259 µM (active); in the experiment with SR, 0.0146 µM (active); with Hs-578T it was 0.0274 µM (active); in the experiment on A498, 0.0327 µM (active). Further, the GI50 in the experiment on CCRF-CEM was 0.0192 µM (active); with MOLT-4, 0.0266 µM (active); in the experiment on SF-539 it was 0.023 µM (active); with HT-29, 0.022 µM (active); in the experiment with A549 it was 0.0128 µM (active); with HCT-15, 0.0276 µM. The GI50 in the experiment on SN12C was < 0.01 µM (active).

`CCc1nnc2sc(-c3ccc(-c4ccccc4[N+](=O)[O-])o3)nn12`: the GI50 is 54.8 µM (inactive) with 786-0; 61.7 µM (inactive) with UACC-257; 34.9 µM (inactive) in the experiment on COLO 205; > 100 µM (inactive) with SNB-75; 66.4 µM (inactive) in the experiment with CAKI-1; > 100 µM (inactive) in the experiment with Malme-3M. In addition, the GI50 in the experiment on RXF 393 was 57.9 µM (inactive); in the experiment with UACC-62, 45.7 µM (inactive); in the experiment on SW-620, 34 µM (inactive); in the experiment on SR it was 20.1 µM (inactive); in the experiment with Hs-578T, 54.3 µM (inactive); in the experiment with A498, 54 µM (inactive). The GI50 with CCRF-CEM was 26.9 µM (inactive); in the experiment with MOLT-4, 19.5 µM (inactive); in the experiment with SF-539 it was 29.7 µM (inactive); in the experiment on HT-29, 35.6 µM (inactive); in the experiment with A549, 36.5 µM (inactive); in the experiment with HCT-15, 30.1 µM. Besides, the GI50 in the experiment on SN12C is 53 µM (inactive).

Take `c1ccc2c(c1)-c1ccccc1C2NC1=NCCO1`: the GI50 in the experiment with 786-0 is 28.1 µM (inactive); in the experiment with COLO 205, 18.9 µM (inactive); in the experiment on SK-MEL-28 it was 24.9 µM (inactive); in the experiment on SNB-75, 15.4 µM (inactive); with CAKI-1, 28.5 µM (inactive); with Malme-3M, 13.1 µM (inactive). The GI50 in the experiment with RXF 393 is 42.2 µM (inactive); with UACC-62 it was 20.5 µM (inactive); in the experiment with SW-620 it was 54.2 µM (inactive); with SR it was 30.3 µM (inactive); with Hs-578T, 55 µM (inactive); in the experiment on A498, 18.2 µM (inactive). The GI50 was 32.6 µM (inactive) in the experiment on CCRF-CEM; 29.4 µM (inactive) in the experiment with MOLT-4; 21.7 µM (inactive) in the experiment on SF-539; 21.7 µM (inactive) in the experiment on HT-29; 32.4 µM (inactive) in the experiment on A549; 9.4 µM in the experiment on HCT-15. Besides, the GI50 in the experiment with SN12C was 33.7 µM (inactive).

On to `O=C(O)C1C2CCC(O2)C1C(=O)NCc1cccnc1` (centres undefined), for which the GI50 in the experiment with 786-0, in the experiment on UACC-257, with COLO 205, in the experiment with SK-MEL-28, with SNB-75 and with CAKI-1 was > 100 µM (inactive) throughout. The GI50 in the experiment on Malme-3M, in the experiment on RXF 393, in the experiment on UACC-62, with SW-620, with SR and in the experiment with Hs-578T was > 100 µM (inactive) in each case. The GI50 in the experiment with A498 was > 100 µM (inactive); with CCRF-CEM, > 100 µM (inactive); in the experiment with SF-539, > 100 µM (inactive); in the experiment with HT-29, > 100 µM (inactive); in the experiment on A549 it was > 100 µM (inactive); in the experiment on HCT-15, over 100 µM. For the same molecule, in the experiment with SN12C, the GI50 is > 100 µM (inactive).
